Data published in patent publication US20100093661A1, “COMPOSITION COMPRISING CHITOSAN AND AN ACIDIC DRUG FOR ORAL CONTROLLED RELEASE” (The Jordanian Pharmaceutical Manufacturing Co., priority 2007, published 2010).

Key:
[1] = single 200-mg oral dose, fasting subjects; cited from earlier work
Water solubility = type: physicochemical

| water solubility (Water solubility) | SMILES | time of peak plasma levels after administration [1] |
| --- | --- | --- |
|  | CC(C)Cc1ccc(C(C)C(=O)O)cc1 (centres unmarked) [Ibuprofen] | about 1 hr |
| water insoluble | CC(=O)O.CC(C)Cc1ccc(C(C)C(=O)O)cc1 (centres unmarked) [Ibuprofen ethanoate] |  |
